Data published in the supplement of paper PMC10307832.

Assays:
Assay in all cases: relative viability (nuclei count vs DMSO), 5 days (fraction); higher = more cells survive
[1] = compound: C1CCC(CC1)N(CCNCCC2=C3C(=C(C=C2)O)NC(=O)CO3)C(=O)CCNCCC4=CC(=C(C=C4)Cl)Cl [AZ505] + NC(=O)Nc1cc(-c2cccc(F)c2)sc1C(=O)N[C@H]1CCCNC1 [AZD7762] (partner 0.2 µM)
Outline: (§1)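 Lung cancer cell lines in 1536-well plates got either a single drug or a fixed anchor-drug dose together with five library-drug doses (not always all listed) in √10 steps, by pin tool, on the day after seeding. Nuclei were counted after 5 days, and relative viability is the treated-to-vehicle ratio of nuclei counts. Values are medians of duplicate plates.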

[2] = compound: Cn1c(=O)n(-c2ccc(C(C)(C)C#N)cc2)c2c3cc(-c4cnc5ccccc5c4)ccc3ncc21 [Dactolisib] + Nc1ncn([C@H]2C[C@H](O)[C@@H](CO)O2)c(=O)n1 [Decitabine] (partner 2 µM)
Outline: as §1

[3] = compound: C1CCC(CC1)N(CCNCCC2=C3C(=C(C=C2)O)NC(=O)CO3)C(=O)CCNCCC4=CC(=C(C=C4)Cl)Cl [AZ505] + CC(=O)c1c(C)c2cnc(Nc3ccc(N4CCNCC4)cn3)nc2n(C2CCCC2)c1=O [Palbociclib] (partner 0.5 µM)
Outline: as §1

[4] = compound: Cn1c(=O)n(-c2ccc(C(C)(C)C#N)cc2)c2c3cc(-c4cnc5ccccc5c4)ccc3ncc21 [Dactolisib] + C[C@@H](Oc1cc(-c2cnn(C3CCNCC3)c2)cnc1N)c1c(Cl)ccc(F)c1Cl [Crizotinib] (partner 1 µM)
Outline: as §1

Cell Line	relative viability ([1]; first compound 0.08 µM)	relative viability ([1]; first compound 0.253 µM)	relative viability ([1]; first compound 0.8 µM)	relative viability ([1]; first compound 2.53 µM)	relative viability ([1]; first compound 8 µM)	relative viability ([2]; first compound 0.002 µM)	relative viability ([2]; first compound 0.006325 µM)	relative viability ([2]; first compound 0.02 µM)	relative viability ([2]; first compound 0.06325 µM)	relative viability ([2]; first compound 0.2 µM)	relative viability ([3]; first compound 0.08 µM)	relative viability ([3]; first compound 0.253 µM)	relative viability ([3]; first compound 0.8 µM)	relative viability ([3]; first compound 2.53 µM)	relative viability ([3]; first compound 8 µM)	relative viability ([4]; first compound 0.002 µM)	relative viability ([4]; first compound 0.006325 µM)	relative viability ([4]; first compound 0.02 µM)	relative viability ([4]; first compound 0.06325 µM)	relative viability ([4]; first compound 0.2 µM)
NCI-H2342	0.538	0.488	0.489	0.686	0.563	0.726	0.689	0.677	0.58	0.501	0.472	0.509	0.575	0.549	0.505	–	–	–	–	–
HCC-15	0.711	1.24	1.24	1.13	1.42	0.626	0.599	0.617	0.33	0.208	0.78	0.714	0.686	0.847	0.739	0.826	0.767	0.788	0.556	0.366
A-427	0.695	0.618	0.705	0.715	0.647	0.605	0.571	0.609	0.457	0.436	0.529	0.526	0.499	0.512	0.527	0.93	0.856	0.844	0.615	0.48
NCI-H2228	–	–	–	–	–	–	–	–	–	–	0.554	0.723	0.69	0.768	0.918	0.601	0.283	0.297	0.252	0.175
NCI-H1734	0.519	0.333	0.526	0.494	0.576	0.542	0.491	0.478	0.341	0.259	0.351	0.373	0.324	0.411	0.338	0.634	0.578	0.454	0.333	0.164
SK-LU-1	–	–	–	–	–	0.523	0.72	0.6	0.44	0.388	0.319	0.343	0.292	0.322	0.336	0.912	0.936	0.681	0.455	0.352
PC-14	0.366	0.317	0.391	0.354	0.372	0.333	0.222	0.261	0.161	0.138	0.402	0.439	0.456	0.471	0.595	0.918	0.932	0.953	0.603	0.391
NCI-H1915	0.707	0.753	0.7	0.727	0.716	0.291	0.259	0.266	0.285	0.251	0.528	0.528	0.478	0.44	0.473	0.889	0.903	0.916	0.713	0.529
NCI-H1666	0.791	0.853	0.844	0.852	0.946	0.836	0.714	0.756	0.607	0.596	0.625	0.648	0.621	0.72	0.601	1.22	0.884	0.876	0.637	0.436
HCC-366	0.357	0.215	0.281	0.151	0.247	0.376	0.338	0.256	0.28	0.133	0.361	0.491	0.326	0.402	0.384	0.409	0.574	0.531	0.302	0.168
SK-MES-1	–	–	–	–	–	0.43	0.362	0.369	0.251	0.231	0.31	0.316	0.26	0.294	0.32	1.14	0.989	0.986	0.632	0.567
NCI-H661	–	–	–	–	–	0.574	0.532	0.501	0.346	0.324	0.404	0.433	0.402	0.422	0.372	0.987	0.979	1.14	0.779	0.613
PC-3 [JPC-3]	0.784	–	0.843	0.873	1.06	0.87	0.783	0.878	0.786	0.655	0.527	–	0.521	0.566	0.568	1.08	0.979	0.916	0.874	0.768
Calu-6	–	–	–	–	–	–	–	–	–	–	–	–	–	–	–	0.891	0.766	0.702	0.462	0.325
LC-2-ad	0.801	0.821	0.867	0.847	0.832	0.888	0.871	0.727	0.784	0.73	0.458	0.479	0.45	0.499	0.511	0.403	0.477	0.505	0.338	0.4
CAL-12T	0.62	0.647	0.605	0.575	0.814	–	–	–	–	–	0.324	0.437	0.372	0.477	0.618	0.624	0.661	0.425	0.216	0.215
RERF-LC-KJ	0.95	0.964	0.923	0.98	0.909	0.752	0.726	0.644	0.316	0.443	0.982	1.15	1.05	1	0.984	1.01	0.86	0.84	0.668	0.582
NCI-H1650	–	–	–	–	–	0.591	0.367	0.37	0.294	0.315	0.34	0.412	0.278	0.35	0.317	0.832	0.944	0.718	0.823	0.559
BEN	0.594	0.433	0.621	0.758	0.759	0.802	0.692	0.63	0.518	0.41	0.458	0.457	0.442	0.48	0.498	0.785	0.77	0.859	0.467	0.296
EMC-BAC-2	0.957	1.17	1.11	1.14	1.14	1.01	0.861	0.888	0.54	0.551	0.437	0.528	0.496	0.509	0.526	0.834	0.718	0.708	0.565	0.34
LU99A	0.341	0.54	0.358	–	0.361	0.906	0.723	0.602	0.373	0.261	0.363	0.447	0.403	–	0.367	0.548	0.446	0.335	0.272	0.231

Cell Line	relative viability ([1]; first compound 0.08 µM)	relative viability ([1]; first compound 0.253 µM)	relative viability ([1]; first compound 0.8 µM)	relative viability ([1]; first compound 2.53 µM)	relative viability ([1]; first compound 8 µM)	relative viability ([2]; first compound 0.002 µM)	relative viability ([2]; first compound 0.006325 µM)	relative viability ([2]; first compound 0.02 µM)	relative viability ([2]; first compound 0.06325 µM)	relative viability ([2]; first compound 0.2 µM)	relative viability ([3]; first compound 0.08 µM)	relative viability ([3]; first compound 0.253 µM)	relative viability ([3]; first compound 0.8 µM)	relative viability ([3]; first compound 2.53 µM)	relative viability ([3]; first compound 8 µM)	relative viability ([4]; first compound 0.002 µM)	relative viability ([4]; first compound 0.006325 µM)	relative viability ([4]; first compound 0.02 µM)	relative viability ([4]; first compound 0.06325 µM)	relative viability ([4]; first compound 0.2 µM)
ABC-1	0.637	0.537	0.918	0.825	0.859	1.22	1.02	1.13	0.999	0.827	0.469	–	0.686	0.661	0.517	0.632	0.97	0.908	0.765	0.396
NCI-H2170	0.825	0.901	0.821	0.92	0.966	0.489	0.466	0.476	0.371	0.354	0.38	0.39	0.379	0.401	0.434	1.2	1.17	0.832	0.677	0.331
NCI-H1299	–	–	–	–	–	–	–	–	–	–	–	–	–	–	–	0.941	0.964	0.997	0.76	0.649
EBC-1	–	–	–	–	–	–	–	–	–	–	–	–	–	–	–	0.226	0.181	0.208	0.198	0.2
NCI-H1648	–	0.755	0.921	0.818	0.825	0.478	0.476	0.595	0.452	0.343	–	0.264	0.305	0.284	0.27	–	–	–	–	–
COR-L23	–	–	–	–	–	0.605	0.445	0.32	0.23	0.182	0.259	0.253	0.264	0.284	0.281	0.787	0.604	0.619	0.283	0.165
COR-L 105	–	–	–	–	–	0.578	0.629	0.598	0.395	0.326	0.399	0.405	0.369	0.406	0.399	0.85	0.874	0.561	0.645	0.283
NCI-H596	1.18	–	1.02	1.04	0.916	1	0.965	0.814	0.718	0.523	–	–	–	–	–	0.974	0.874	0.742	0.595	0.395
NCI-H2023	–	–	–	–	–	0.224	0.225	0.218	0.115	0.0931	0.368	0.405	0.345	0.365	0.345	0.599	0.576	0.437	0.176	0.129
NCI-H1793	0.466	0.513	0.574	0.404	0.407	0.454	0.319	0.266	0.231	0.172	0.293	0.271	0.3	0.307	0.347	–	–	–	–	–
NCI-H520	–	–	–	–	–	0.527	0.476	0.456	0.206	0.156	0.229	0.235	0.201	0.263	0.237	0.813	0.658	0.539	0.207	0.174
A549	–	–	–	–	–	0.34	0.292	0.248	0.204	0.12	–	–	–	–	–	0.855	0.653	0.569	0.162	0.0827
NCI-H1563	–	–	–	–	–	–	–	–	–	–	–	–	–	–	–	0.839	0.789	0.76	0.62	0.597
NCI-H1395	0.407	–	0.413	0.386	0.382	0.601	0.69	0.667	0.505	0.447	0.593	–	0.638	0.661	0.686	–	–	–	–	–
NCI-H2009	–	–	–	–	–	0.381	0.373	0.362	0.34	0.268	0.191	0.203	0.174	0.153	0.235	1.01	1.05	1.02	0.986	0.566
NCI-H522	0.678	0.747	0.727	1.11	0.887	0.797	0.723	0.751	0.62	0.533	0.91	0.946	0.891	1.04	1.16	–	–	–	–	–
IA-LM	–	–	–	–	–	–	–	–	–	–	–	–	–	–	–	0.903	0.561	0.539	0.162	0.0865
SW 1573	–	–	–	–	–	0.556	0.336	0.299	0.185	0.149	0.342	0.393	0.389	0.441	0.4	0.989	0.712	0.66	0.572	0.317
NCI-H1703	0.106	–	0.12	0.114	0.134	–	–	–	–	–	–	–	–	–	–	0.581	0.49	0.373	0.35	0.18
SW 900	0.576	0.295	0.611	0.569	0.75	0.546	0.443	0.405	0.409	0.425	0.542	0.505	0.471	0.509	0.542	–	–	–	–	–
